Measurements from patent US10150755B2, “ASK1 inhibitor compounds and uses thereof” (Seal Rock Therapeutics, Inc., priority 2017, dated 2018).

Each compound was assayed against ASK1 (Homo sapiens (Human), UniProt Q99683) (assay: ASK1 Kinase Assay (Promega ASK1 Kinase Enzyme System, ADP-Glo)). Details: enzyme 50 nM, ATP 10 μM.
Type: biochemical
Protocol: The ASK1 enzymatic assay was run following Promega ASK1 Kinase Enzyme System (Cat #V3881). The kit provides the protocol, enzymes and all reagents necessary to run an assay. Firstly, the compounds, enzyme, substrate and ATP were diluted in provided assay buffer. The final concentration of the enzyme was 50 nM, substrate (Myelin basic protein) 1 μg/ml and ATP 10 μM. The compound and the enzyme were pre-incubated in a 384 well white solid bottom plate (Greiner, Cat#784075) for 10 minutes. After incubation, the substrate and ATP were added and incubated for further 60 minutes. After 60 minutes, ADP-Glo™ was added and plate was incubated for another 40 minutes. After 40 minutes, Kinase Detection Reagent was added and the plate was incubated for 45 minutes. After 45 minutes, plate was read on Perkin Elmer EnVision using luminescence read (0.5 seconds/well).

Sequence of ASK1 (Q99683 649-946 limits assumed): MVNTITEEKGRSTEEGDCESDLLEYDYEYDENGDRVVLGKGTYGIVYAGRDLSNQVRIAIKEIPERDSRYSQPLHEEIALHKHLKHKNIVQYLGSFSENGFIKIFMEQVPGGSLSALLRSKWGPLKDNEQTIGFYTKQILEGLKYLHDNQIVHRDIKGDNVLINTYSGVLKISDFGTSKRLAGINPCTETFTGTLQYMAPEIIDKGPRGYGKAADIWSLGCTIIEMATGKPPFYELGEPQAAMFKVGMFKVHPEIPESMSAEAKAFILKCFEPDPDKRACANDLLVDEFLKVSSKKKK

Row | SMILES | IC50 [nM]
1 | O=C(c1cc2c(cc1Cl)C(=O)N(c1cccc(-c3nncn3C3CC3)n1)C2)N1CCOCC1 [Compound 26, 6-chloro-2-(6-(4-cyclopropyl-4H-1,2,4-triazol-3-yl)pyridin-2-yl)-5-(morpholine-4-carbonyl)isoindolin-1-one] | < 200
2 | Cn1nccc1-c1ccc2c(c1)CN(c1cccc(-c3nncn3C3CC3)n1)C2=O [Compound 29, 2-(6-(4-cyclopropyl-4H-1,2,4-triazol-3-yl)pyridin-2-yl)-5-(1-methyl-1H-pyrazol-5-yl)isoindolin-1-one] | < 200
3 | Cn1cnc(-c2ccc3c(c2)CN(c2cccc(-c4nncn4C4CC4)n2)C3=O)c1 [Compound 30, 2-(6-(4-cyclopropyl-4H-1,2,4-triazol-3-yl)pyridin-2-yl)-5-(1-methyl-1H-imidazol-4-yl)isoindolin-1-one] | < 200
4 | Nc1ccc2c(c1)CN(c1cccc(-c3nncn3C3CC3)n1)C2=O [Compound 31, 5-amino-2-(6-(4-cyclopropyl-4H-1,2,4-triazol-3-yl)pyridin-2-yl)isoindolin-1-one] | < 200
5 | O=C1c2ccc(NC(=O)C3(c4ccccc4)CC3)cc2CN1c1cccc(-c2nncn2C2CC2)n1 [Compound 33, N-(2-(6-(4-Cyclopropyl-4H-1,2,4-triazol-3-yl)pyridin-2-yl)-1-oxoisoindolin-5-yl)-1-phenylcyclopropane-1-carboxamide] | 200 to 1000
6 | CCNc1ccc2c(c1)CN(c1cccc(-c3nncn3C3CC3)n1)C2=O [Compound 35, 2-(6-(4-cyclopropyl-4H-1,2,4-triazol-3-yl)pyridin-2-yl)-5-(ethylamino)isoindolin-1-one] | < 200
7 | Cn1cncc1-c1ccc2c(c1)C(=O)N(c1cccc(-c3nncn3C3CC3)n1)C2 [Compound 36, 2-(6-(4-cyclopropyl-4H-1,2,4-triazol-3-yl)pyridin-2-yl)-6-(1-methyl-1H-imidazol-5-yl)isoindolin-1-one] | < 200
8 | O=C1c2cc(-n3ccnc3)ccc2CN1c1cccc(-c2nncn2C2CC2)n1 [Compound 37, 2-(6-(4-cyclopropyl-4H-1,2,4-triazol-3-yl)pyridin-2-yl)-6-(1H-imidazol-1-yl)isoindolin-1-one] | < 200
9 | O=C1c2cc(-n3cnc4ccccc43)ccc2CN1c1cccc(-c2nncn2C2CC2)n1 [Compound 38, 6-(1H-Benzo[d]imidazol-1-yl)-2-(6-(4-cyclopropyl-4H-1,2,4-triazol-3-yl)pyridin-2-yl)isoindolin-1-one] | < 200
10 | Cn1ccc(-c2ccc3c(c2)C(=O)N(c2cccc(-c4nncn4C4CC4)n2)C3)n1 [Compound 39, 2-(6-(4-cyclopropyl-4H-1,2,4-triazol-3-yl)pyridin-2-yl)-6-(1-methyl-1H-pyrazol-3-yl)isoindolin-1-one] | < 200
11 | Cc1ccc(-c2ccc3c(c2)C(=O)N(c2cccc(-c4nncn4C4CC4)n2)C3)cn1 [Compound 42, 2-(6-(4-cyclopropyl-4H-1,2,4-triazol-3-yl)pyridin-2-yl)-6-(6-methylpyridin-3-yl)isoindolin-1-one] | < 200
12 | COc1ccc(-c2ccc3c(c2)C(=O)N(c2cccc(-c4nncn4C4CC4)n2)C3)cn1 [Compound 45, 2-(6-(4-cyclopropyl-4H-1,2,4-triazol-3-yl)pyridin-2-yl)-6-(6-methoxypyridin-3-yl)isoindolin-1-one] | < 200

The next lines start with the values.

Row | IC50 [nM] | SMILES
13 | < 200 | CNC(=O)c1ccc2c(c1)CN(c1cccc(-c3nncn3C3CC3)n1)C2=O [Compound 3, 2-(6-(4-cyclopropyl-4H-1,2,4-triazol-3-yl)pyridin-2-yl)-N-methyl-1-oxoisoindoline-5-carboxamide]
14 | < 200 | COCCNC(=O)c1ccc2c(c1)CN(c1cccc(-c3nncn3C3CC3)n1)C2=O [Compound 4, 2-(6-(4-cyclopropyl-4H-1,2,4-triazol-3-yl)pyridin-2-yl)-N-(2-methoxyethyl)-1-oxoisoindoline-5-carboxamide]
15 | < 200 | O=C(NCCn1ccnc1)c1ccc2c(c1)CN(c1cccc(-c3nncn3C3CC3)n1)C2=O [Compound 5, N-(2-(1H-imidazol-1-yl)ethyl)-2-(6-(4-cyclopropyl-4H-1,2,4-triazol-3-yl)pyridin-2-yl)-1-oxoisoindoline-5-carboxamide]
16 | < 200 | O=C1c2ccc(C(=O)n3cccn3)cc2CN1c1cccc(-c2nncn2C2CC2)n1 [Compound 6, 2-(6-(4-cyclopropyl-4H-1,2,4-triazol-3-yl)pyridin-2-yl)-5-(1H-pyrazole-1-carbonyl)isoindolin-1-one]
17 | < 200 | O=C(NC1CCOCC1)c1ccc2c(c1)CN(c1cccc(-c3nncn3C3CC3)n1)C2=O [Compound 9, 2-(6-(4-cyclopropyl-4H-1,2,4-triazol-3-yl)pyridin-2-yl)-1-oxo-N-(tetrahydro-2H-pyran-4-yl)isoindoline-5-carboxamide]
18 | < 200 | O=C(c1ccc2c(c1)CN(c1cccc(-c3nncn3C3CC3)n1)C2=O)N1CCCC1 [Compound 18, 2-(6-(4-cyclopropyl-4H-1,2,4-triazol-3-yl)pyridin-2-yl)-5-(pyrrolidine-1-carbonyl)isoindolin-1-one]
19 | < 200 | O=C(c1ccc2c(c1)CN(c1cccc(-c3nncn3C3CC3)n1)C2=O)N1CCC1 [Compound 19, 5-(azetidine-1-carbonyl)-2-(6-(4-cyclopropyl-4H-1,2,4-triazol-3-yl)pyridin-2-yl)isoindolin-1-one]
20 | < 200 | O=C1CN(C(=O)c2ccc3c(c2)CN(c2cccc(-c4nncn4C4CC4)n2)C3=O)CCN1 [Compound 20, 2-(6-(4-cyclopropyl-4H-1,2,4-triazol-3-yl)pyridin-2-yl)-5-(3-oxopiperazine-1-carbonyl)isoindolin-1-one]
21 | < 200 | O=C(c1ccc2c(c1)CN(c1cccc(-c3nncn3C3CC3)n1)C2=O)N1C[C@H]2CC[C@@H](C1)O2 [Compound 21, 5-((1R,5S)-8-oxa-3-azabicyclo[3.2.1]octane-3-carbonyl)-2-(6-(4-cyclopropyl-4H-1,2,4-triazol-3-yl)pyridin-2-yl)isoindolin-1-one]
22 | < 200 | CO[C@@H]1CCN(C(=O)c2ccc3c(c2)CN(c2cccc(-c4nncn4C4CC4)n2)C3=O)C1 [Compound 22, (R)-2-(6-(4-cyclopropyl-4H-1,2,4-triazol-3-yl)pyridin-2-yl)-5-(3-methoxypyrrolidine-1-carbonyl)isoindolin-1-one]
23 | < 200 | COC(=O)C1CCN(C(=O)c2ccc3c(c2)CN(c2cccc(-c4nncn4C4CC4)n2)C3=O)CC1 [Compound 23, methyl 1-(2-(6-(4-cyclopropyl-4H-1,2,4-triazol-3-yl)pyridin-2-yl)-1-oxoisoindoline-5-carbonyl)piperidine-4-carboxylate]
24 | < 200 | O=C(c1ccc2c(c1)CN(c1cccc(-c3nncn3C3CC3)n1)C2=O)N1CCSCC1 [Compound 24, 2-(6-(4-cyclopropyl-4H-1,2,4-triazole-3-yl)pyridin-2-yl)-5-(thiomorpholine-4-carbonyl)isoindolin-1-one]
25 | < 200 | CSC1CCN(C(=O)c2ccc3c(c2)CN(c2cccc(-c4nncn4C4CC4)n2)C3=O)CC1 [Compound 25, 2-(6-(4-cyclopropyl-4H-1,2,4-triazol-3-yl)pyridin-2-yl)-5-(4-(methylthio)piperidine-1-carbonyl)isoindolin-1-one]
26 | < 200 | O=C1c2ccc(-c3cc[nH]n3)cc2CN1c1cccc(-c2nncn2C2CC2)n1 [Compound 28, 2-(6-(4-cyclopropyl-4H-1,2,4-triazol-3-yl)pyridin-2-yl)-5-(1H-pyrazol-3-yl)isoindolin-1-one]
